The target of experiment [1] is EGFR (Homo sapiens, UniProt P00533). Kind of experiment: EGFR inhibition assay (Alpha Screen system). Format: biochemical. Conditions: Gefitinib as standard.
Experiment [2] deals with HCT-116 (colon) carcinoma cell line. Kind of experiment: antiproliferative growth assay, HCT-116. Format: cell-based, human. To be noted: for IC50: HCT116 colon carcinoma cells; for potency against colon cancer relative to the standard reference (5-fluorouracil): HCT-116, compared with 5-fluorouracil.
Experiment [3] deals with PC3 (prostate) carcinoma cell line. As to the kind of experiment: antiproliferative growth assay, PC3. Format: cell-based, human. To be noted: PC3 prostate carcinoma cells. The source says:
It is noteworthy that most of these compounds belong to the thiazolidine library.

Experiment [4] concerns MCF7 (breast) carcinoma cell line. Kind of experiment: antiproliferative growth assay, MCF7. Format: cell-based, human.
Experiment [5] deals with MCF7 cells. Kind of experiment: cell cycle analysis by flow cytometry. Format: cell-based, human. Conditions: 24 hours. An excerpt:
Typical neoplastic cells evade apoptosis since accumulation of mutations block apoptosis pathways. It was confirmed that the induction of apoptosis upon effective cancer treatment. It is an important regulatory mechanism in cell growth, maturation and death and is associated with a variety of human diseases, including tumors. Chemotherapy agents may lead to an autophagic response, which is one possible method of inducing apoptosis. There is a unique association between autophagy and apoptosis. While chemotherapeutic drugs induce autophagy, cell cycle arrest and cell senescence, it is imperative the induction of apoptosis and permanent removal of neoplastic cells for effective cancer treatment. Studies on the effect of compound 10 on cell cycle development and induction of apoptosis in cancer MCF7 cells was carried out. […] The cells were analyzed by flow cytometry technique.

The test system of experiment [6] is MCF7 cells. As to the kind of experiment: apoptosis assay, Annexin V/PI. Type of experiment: cell-based, human. To be noted: 24 h. An excerpt: It has been detected that the early and late apoptosis produced by the examined compound 10 certainly indicated its capability to induce significant levels of apoptosis with necrosis percent 3.14.
[7] abbreviates: Homo sapiens, MCF7, MCF7 breast carcinoma cells.

“Also recorded” adds a separate entry of the source.

As usually defined, the IC50 is the concentration at which inhibition is half-maximal. For “4-(5-(((1H-1,2,4-triazol-3-yl)amino) methylene)-3-benzoyl-4-oxothiazolidin-2-ylidene)amino)benzoic acid [Compound 11]”, the midpoint of inhibition in experiment [1], the IC50, lay at 0.0739 ± 0.0016 µM.

As to “4-((3-benzoyl-5-(5-((4-chlorophenyl)diazenyl)-2-hydroxybenzylidene)-4-oxothiazolidin-2-ylidene)amino)benzoic acid [Compound 9c]”, the IC50 is 0.168 ± 0.0036 µM in experiment [1], 19.6 µM in experiment [2], > 100 µM in experiment [3] and 38 µM in experiment [4] (MCF7 breast carcinoma cells). Also, the “potency against colon cancer relative to the standard reference (5-fluorouracil)” value in experiment [2] was “higher potency against colon cancer relative to the standard reference”.

Take “4-((3-benzoyl-5-((dimethylamino)methylene)-4-oxothiazolidin-2-ylidene)amino) benzoic acid [Compound 10]”: 0.0674 µM corresponded to half-maximal inhibition in experiment [1] (IC50).

Consider `O=C(O)c1ccc(/N=C2\SCC(=O)N2C(=O)c2ccccc2)cc1` [Compound 4, 4-((3-benzoyl-4-oxothiazolidin-2-ylidene)amino)benzoic acid], for which the IC50 in experiment [2] (Homo sapiens, HCT-116) is > 100 µM; in experiment [3] (Homo sapiens) it was > 100 µM; in experiment [4] (setting [7]) it was > 100 µM.

For `O=C(O)c1ccc(/N=C2\S/C(=C/c3ccccc3)C(=O)N2C(=O)c2ccccc2)cc1` [Compound 6a, 4-((3-benzoyl-5-(benzylidene)-4-oxothiazolidin-2-ylidene)amino)benzoic acid], the IC50 in experiment [2] (Homo sapiens, HCT-116) was > 100 µM; in experiment [3] (Homo sapiens), > 100 µM; in experiment [4] (setting [7]) it was > 100 µM.

As to `O=C(O)c1ccc(/N=C2\S/C(=C/c3ccc(O)cc3)C(=O)N2C(=O)c2ccccc2)cc1` [Compound 6b, 4-((3-benzoyl-5-(4-hydroxybenzylidene)-4-oxothiazolidin-2-ylidene)amino)benzoic acid], the IC50 in experiment [2] (Homo sapiens, HCT-116) is > 100 µM; in experiment [3] (Homo sapiens), > 100 µM; in experiment [4] (setting [7]), > 100 µM.

Take `O=C(O)c1ccc(/N=C2\S/C(=C/c3ccc(O)cc3O)C(=O)N2C(=O)c2ccccc2)cc1` [Compound 6c, 4-((3-benzoyl-5-(2,4-dihydroxybenzylidene)-4-oxothiazolidin-2-ylidene)amino) benzoic acid]: the IC50 in experiment [2] (Homo sapiens, HCT-116) is > 100 µM; in experiment [3] (Homo sapiens), > 100 µM; in experiment [4] (setting [7]), > 100 µM.

Turning to `COc1ccc(/C=C2/S/C(=N\c3ccc(C(=O)O)cc3)N(C(=O)c3ccccc3)C2=O)cc1` [Compound 6d, 4((3-benzoyl-5-(4-methoxybenzylidene)-4-oxothiazolidin-2-ylidene)amino) benzoic acid], the IC50 was 0.134 ± 0.0029 µM in experiment [1]; 12.4 µM in experiment [2] (Homo sapiens, HCT-116); > 100 µM in experiment [3] (Homo sapiens); 34.4 µM in experiment [4] (MCF7 breast carcinoma cells). Moreover, the “potency against colon cancer relative to the standard reference (5-fluorouracil)” value in experiment [2] was “higher potency against colon cancer relative to the standard reference”.

For `COc1cc(/C=C2/S/C(=N\c3ccc(C(=O)O)cc3)N(C(=O)c3ccccc3)C2=O)cc(OC)c1` [Compound 6e, 4-((3-benzoyl-5-(3,5-dimethoxybenzylidene)-4-oxothiazolidin-2-ylidene)amino) benzoic acid], the IC50 was > 100 µM in experiment [2] (Homo sapiens, HCT-116); > 100 µM in experiment [3] (Homo sapiens); > 100 µM in experiment [4] (setting [7]).

As for `O=C(O)c1ccc(/N=C2\S/C(=C/c3ccc4ccccc4c3)C(=O)N2C(=O)c2ccccc2)cc1` [Compound 6g, 4-((3-benzoyl-5-(naphthalen-2-ylmethylene)-4-oxothiazolidin-2-ylidene)amino) benzoic acid], the IC50 in experiment [2] (Homo sapiens, HCT-116) is > 100 µM; in experiment [3] (Homo sapiens) it was > 100 µM; in experiment [4] (setting [7]) it was > 100 µM.

On to `O=C(O)c1ccc(/N=C2\S/C(=C/c3c[nH]c4ccccc34)C(=O)N2C(=O)c2ccccc2)cc1` [Compound 6h, 4-((5-((1H-indol-3-yl)methylene)-3-benzoyl-4-oxothiazolidin-2-ylidene)amino) benzoic acid], for which the IC50 in experiment [2] (Homo sapiens, HCT-116) was > 100 µM; in experiment [3] (Homo sapiens) it was > 100 µM; in experiment [4] (setting [7]), > 100 µM.

As for `CN(C)c1ccc(/C=C2/S/C(=N\c3ccc(C(=O)O)cc3)N(C(=O)c3ccccc3)C2=O)cc1` [Compound 6i, 4-((3-benzoyl-5-(4-(dimethylamino)benzylidene)-4-oxothiazolidin-2-ylidene)amino) benzoic acid], the IC50 in experiment [2] (Homo sapiens, HCT-116) was > 100 µM; in experiment [3] (Homo sapiens), > 100 µM; in experiment [4] (setting [7]) it was > 100 µM.

Take `O=C(O)c1ccc(/N=C2\S/C(=C/c3cc(/N=N/c4ccccc4)ccc3O)C(=O)N2C(=O)c2ccccc2)cc1` [Compound 9a, 4-((3-benzoyl-5-(2-hydroxy-5-((E)-phenyldiazenyl)benzylidene)-4-oxothiazolidin-2-ylidene)amino) benzoic acid]: the IC50 in experiment [2] (Homo sapiens, HCT-116) was > 100 µM; in experiment [3] (Homo sapiens), > 100 µM; in experiment [4] (setting [7]) it was > 100 µM.

In the case of `COc1ccc(/N=N/c2ccc(O)c(/C=C3/S/C(=N\c4ccc(C(=O)O)cc4)N(C(=O)c4ccccc4)C3=O)c2)cc1` [Compound 9b, 4-((3-benzoyl-5-(2-hydroxy-5-((4-methoxyphenyl)diazenyl)benzylidene)-4-oxothiazolidin-2-ylidene)amino)benzoic acid], the IC50 was > 100 µM in experiment [2] (Homo sapiens, HCT-116); > 100 µM in experiment [3] (Homo sapiens); > 100 µM in experiment [4] (setting [7]).

With `CN(C)/C=C1\S/C(=N\c2ccc(C(=O)O)cc2)N(C(=O)c2ccccc2)C1=O` [Compound 10, 4-((3-benzoyl-5-((dimethylamino)methylene)-4-oxothiazolidin-2-ylidene)amino) benzoic acid], the “Comment (cell cycle result)” value in experiment [5] is “cell cycle arrest at G1/S phase; also recorded: PreGlapoptosis&Cell”. Further, in experiment [5] (at IC50 concentration 12.17 μM), the “% G0-G1” value was determined as 38.71%, the “% G2/M” value turned out to be 28.85%, the “% Pre-G1” value is 26.15% and the “% S” value is given as 32.44%. In addition, in experiment [2], the “potency against colon cancer relative to the standard reference (5-fluorouracil)” value is given as “higher potency against colon cancer relative to the standard reference”. The compound further came in with an IC50 in experiment [2] (Homo sapiens, HCT-116) of 12.2 µM. Also, in experiment [3] (Homo sapiens), the IC50 amounted to 67.4 µM. The same compound gave an IC50 in experiment [4] (setting [7]) of 17.4 µM. Besides, in experiment [6], the “Apoptosis Early” value is 6.41%, the “Apoptosis Late” value was 16.6% and the Necrosis was found to be 3.14%.

Turning to `O=C(O)c1ccc(/N=C2\S/C(=C/Nc3nc[nH]n3)C(=O)N2C(=O)c2ccccc2)cc1` [Compound 11], the “potency against colon cancer relative to the standard reference (5-fluorouracil)” value in experiment [2] is “higher potency against colon cancer relative to the standard reference”. For the same compound, the IC50 in experiment [2] (Homo sapiens, HCT-116) was determined as 7.17 µM. For the same compound, half-maximal inhibition in experiment [3] (Homo sapiens) (IC50) required 98.5 µM. In experiment [4] (setting [7]), the IC50 was found to be 11.7 µM. Besides, in experiment [6], the “Apoptosis Early” value was found to be 6.41%, the “Apoptosis Late” value was determined as 16.6%, the “Apoptosis Total” value turned out to be 26.15% and the Necrosis is 3.14%.

The values are drawn from US12145930B1, “4-thiazolidinone derivatives as EGFR inhibitors for anti-tumor activity” (KING FAISAL UNIVERSITY, priority 2024, dated 2024).
